Experiment [1] has as its system Phakopsora pachyrhizi (the causal agent of Asian soybean rust). In words: Test A: preventive spray on soybean seedlings, visual disease rating (100 = 100% control; * 50 ppm, ** 10 ppm, *** 250 ppm). In kind it is in vivo. To be noted: 100 = 100% disease control; for pest or weed control at 10 ppm: Phakopsora pachyrhizi. The source says: (§1) General protocol for preparing test suspensions for Tests A-E: the test compounds were first dissolved in acetone in an amount equal to 3% of the final volume and then suspended at the desired concentration (in ppm) in acetone and purified water (50/50 mix by volume) containing 250 ppm of the surfactant […] (polyhydric alcohol esters). The resulting test suspensions were then used in Tests A-E.
The test solution was sprayed to the point of run-off on soybean seedlings. The following day the seedlings were inoculated with a spore suspension of Phakopsora pachyrhizi (the causal agent of Asian soybean rust) and incubated in a saturated atmosphere at 22° C. for 24 h, and then moved to a growth chamber at 22° C. for 8 days, after which time visual disease ratings were made.
(§2) Results for Tests A-E are given in Table A. In the Table, a rating of 100 indicates 100% disease control and a rating of 0 indicates no disease control (relative to the controls). An asterisk “*” or a double asterisk “**” or a triple asterisk “***” next to the rating value indicates a 50 ppm, 10 ppm and 250 ppm test suspension was used, respectively. A dash (-) indicates the compound was not tested.

Experiment [2] relates to Puccinia recondita f. sp. tritici (the causal agent of wheat leaf rust). In words: Test B: preventive spray on wheat seedlings, disease rating (100 = 100% control; * 50 ppm, ** 10 ppm, *** 250 ppm). In kind it is in vivo. The note with it: 100 = 100% disease control; for pest or weed control at 10 ppm: Puccinia recondita.
Excerpt: as §1
The test solution was sprayed to the point of run-off on wheat seedlings. The following day the seedlings were inoculated with a spore suspension of Puccinia recondita f. sp. tritici (the causal agent of wheat leaf rust) and incubated in a saturated atmosphere at 20° C. for 24 h, and then moved to a growth chamber at 20° C. for 6 days, after which time disease ratings were made.
as §2

Setting [3] is: 50 ppm test suspension, 0 = no control.
[4] abbreviates: 10 ppm test suspension, 0 = no control.
Where [5] appears, read: 10 ppm test suspension, soybean seedlings.
The mark [6] stands for this setting: 10 ppm test suspension, wheat seedlings.
[7] abbreviates: 50 ppm test suspension, soybean seedlings.
The mark [8] stands for this setting: 50 ppm test suspension, wheat seedlings.

Regarding `CCOC(=O)c1cnn(Cc2ccc(NCC3(C(F)(F)F)OCCO3)cc2)c1` [compound 443], in experiment [1] (setting [3]), the “Test A disease control rating” value was found to be 48%. Further, the “Test B disease control rating” value in experiment [2] (setting [3]) was determined as 0%.
With `CCO/C(=C\Oc1cccc(Cc2nc(C(=O)NCC(F)F)cs2)c1)C(F)(F)F` [compound 398], the pest or weed control at 10 ppm in experiment [1] (setting [4]) and in experiment [2] (setting [4]) was 0% throughout.
For `COC(=O)NN=Cc1ccc(OCC(O)(O)C(F)(F)F)cc1` [compound 33], the “Test A disease control rating” value in experiment [1] (setting [5]) turned out to be 96%. Moreover, in experiment [2] (setting [6]), the “Test B disease control rating” value was 86%.
`CCOC(=O)c1cnn(Cc2cccc(O/C=C(\OC)C(F)(F)F)c2)c1` [compound 365]: the “Test A disease control rating” value in experiment [1] (setting [4]) was found to be 100%. Further, the “Test B disease control rating” value in experiment [2] (setting [4]) is listed as 0%.
In the case of `CCOC(=O)c1cc(OC)n(Cc2ccc(O/C=C(\OCC)C(F)(F)F)cc2)n1` [compound 90], in experiment [1] (setting [5]), the “Test A disease control rating” value worked out at 100%. Also, the “Test B disease control rating” value in experiment [2] (setting [6]) was determined as 0%.
For the compound `CCCO/C(=C\Oc1cccc(Cn2cc(C(=O)OCC)cn2)c1)C(F)(F)F` [compound 324], the “Test A disease control rating” value in experiment [1] (setting [4]) worked out at 0%. Moreover, the “Test B disease control rating” value in experiment [2] (setting [4]) worked out at 0%.
`CC(C)OC(=O)c1cnn(Cc2ccc(OCC3(C(F)(F)F)OCCO3)cc2)c1` [compound 14]: the “Test A disease control rating” value in experiment [1] (setting [5]) is given as 100%. Further, the “Test B disease control rating” value in experiment [2] (setting [6]) stood at 0%.
Consider `C=CCO/C(=C\Oc1ccc(Cn2cc(C(=O)OCC)cn2)cc1)C(F)(F)F` [compound 55], for which, in experiment [1] (setting [5]), the “Test A disease control rating” value was 0%. For the same compound, the “Test B disease control rating” value in experiment [2] (setting [6]) came to 0%.
`CCO/C(=C\Oc1cccc(Cn2cc(C(=O)OCCC(F)(F)F)cn2)c1)C(F)(F)F` [compound 348]: the “Test A disease control rating” value in experiment [1] (setting [4]) came to 100%. Besides, in experiment [2] (setting [4]), the “Test B disease control rating” value amounted to 0%.
With `C=CCOC(=O)c1ccn(Cc2ccc(OC=C(OCC)C(F)(F)F)cc2)n1` [compound 291], the “Test A disease control rating” value in experiment [1] (setting [4]) is 100%. The “Test B disease control rating” value in experiment [2] (setting [4]) came out at 0%.
On the same counts, the results for `CCOC(=O)c1cnn(CCCc2ccc(OCC3(C(F)(F)F)OCCO3)cc2)c1` [compound 296] are 0% and 0%.
`CCOC(=O)c1cnn(Cc2ccc(COCC3(C(F)(F)F)OCCO3)cc2)c1` [compound 141]: in experiment [1] (setting [5]), the “Test A disease control rating” value was determined as 0%. Also, in experiment [2] (setting [6]), the “Test B disease control rating” value was 0%.
For the compound `CCO/C(=C\Oc1cccc(Cn2cc(C(=O)OCCCC(F)(F)F)cn2)c1)C(F)(F)F` [compound 355], the “Test A disease control rating” value in experiment [1] (setting [4]) turned out to be 100%. Besides, in experiment [2] (setting [4]), the “Test B disease control rating” value amounted to 0%.
As to `CCOC(=COc1ccc(CSC(C)=O)cc1)C(F)(F)F` [compound 445], in experiment [1] (setting [3]), the “Test A disease control rating” value is on record as 38%. For the same compound, the “Test B disease control rating” value in experiment [2] (setting [3]) turned out to be 0%.
On the same counts, the results for `Cc1ccc(OCC(O)(O)C(F)(F)F)cc1` [compound 396] are 31% and 19%.
Regarding `CCOC(=O)c1cnn(Cc2ccc(O/C=C(\OCC)C(F)(F)F)cc2)c1` [compound 298], the “Test A disease control rating” value in experiment [1] (setting [4]) is 0%. Besides, in experiment [2] (setting [4]), the “Test B disease control rating” value was 0%.
Take `CN(C)S(=O)(=O)c1ccc(OCC2(C(F)(F)F)OCCO2)cc1` [compound 25]: the “Test A disease control rating” value in experiment [1] (setting [5]) is given as 0%. For the same compound, the “Test B disease control rating” value in experiment [2] (setting [6]) was 0%.
For `CCO/C(=C\Oc1ccc(Cc2ccnc(OCC(F)F)n2)cc1)C(F)(F)F` [compound 306], the “Test A disease control rating” value in experiment [1] (setting [3]) came to 96%. The “Test B disease control rating” value in experiment [2] (setting [3]) is 68%.
On the same counts, the results for `CCOC(=O)c1cnn(Cc2ccc(OC(F)(F)C3(C(F)(F)F)OCCO3)cc2)c1` [compound 319] are 100% and 41%.
Take `CCC#CCOC(=O)c1ccn(Cc2ccc(O/C=C(\OCC)C(F)(F)F)cc2)n1` [compound 326]: the “Test A disease control rating” value in experiment [1] (setting [4]) came out at 100%. Besides, in experiment [2] (setting [4]), the “Test B disease control rating” value came to 0%.
In the case of `CCOC(=COc1ccc(Cc2ccnc(S(C)(=O)=O)n2)cc1)C(F)(F)F` [compound 307], the “Test A disease control rating” value in experiment [1] (setting [3]) worked out at 0%. The “Test B disease control rating” value in experiment [2] (setting [3]) is given as 0%.
Turning to `CCO/C(=C\Oc1cccc(Cn2cc(C(=O)OCC(C)=O)cn2)c1)C(F)(F)F` [compound 337], the “Test A disease control rating” value in experiment [1] (setting [4]) is 100%. For the same compound, the “Test B disease control rating” value in experiment [2] (setting [4]) came out at 0%.
On the same counts, the results for `CCOC(=COc1ccc(CN2CCC(OC)CC2)cc1)C(F)(F)F` [compound 312] are 0% and 0%.
As to `CC(C)CS(=O)(=O)NCc1ccc(OCC2(C(F)(F)F)OCCO2)cc1` [compound 76], in experiment [1] (setting [5]), the “Test A disease control rating” value is listed as 0%. Moreover, the “Test B disease control rating” value in experiment [2] (setting [6]) was 0%.
On to `CCO/C(=C\Oc1ccc(C(=O)OC)cc1)C(F)(F)F` [compound 230], for which, in experiment [1] (setting [5]), the “Test A disease control rating” value was determined as 0%. The “Test B disease control rating” value in experiment [2] (setting [6]) was 0%.
As for `CCS(=O)(=O)Cc1ccc(OCC2(C(F)(F)F)OCCO2)cc1` [compound 23], in experiment [1] (setting [5]), the “Test A disease control rating” value is given as 0%. In addition, the “Test B disease control rating” value in experiment [2] (setting [6]) was 19%.
The corresponding values for `CCOC(=O)NCc1ccc(OCC2(C(F)(F)F)OCCO2)cc1` [compound 78] are 94% and 0%.
On the same counts, the results for `O=C(OCC(=O)C1CCCCC1)c1cnn(Cc2ccc(OCC3(C(F)(F)F)OCCO3)cc2)c1` [compound 202] are 100% and 0%.
Consider `CCOC(=O)c1cnn(COc2ccc(OCC(O)(O)C(F)(F)F)cc2F)c1` [compound 424], for which the pest or weed control (as a rule, the degree to which the test organism was suppressed or injured, in per cent) at 10 ppm in experiment [1] (setting [4]) turned out to be 97%; in experiment [2] (setting [4]), 41%.
Take `CCOC(=O)c1cnn(-c2cccc(O/C=C(\OCC)C(F)(F)F)c2)c1` [compound 317]: in experiment [1] (setting [3]), the “Test A disease control rating” value was determined as 0%. Moreover, in experiment [2] (setting [3]), the “Test B disease control rating” value is 0%.
On to `CCO/C(=C\Oc1ccc(Cc2nc(C(=O)NCC(F)(F)F)cs2)cc1)C(F)(F)F` [compound 129], for which, in experiment [1] (setting [5]), the “Test A disease control rating” value was found to be 100%. The “Test B disease control rating” value in experiment [2] (setting [6]) worked out at 0%.
The corresponding values for `CC(C)OC(=O)c1cnn(Cc2ccc(OCC(O)(O)C(F)(F)F)cc2)c1` [compound 39] are 91% and 79%.
With `CCO/C(=C\Oc1ccc(CN)cc1)C(F)(F)F` [compound 110], the “Test A disease control rating” value in experiment [1] (setting [7]) is given as 79%. The “Test B disease control rating” value in experiment [2] (setting [8]) is reported as 0%.
As to `C#CCNC(=O)c1ccc(O/C=C(\OCC)C(F)(F)F)cc1` [compound 102], the “Test A disease control rating” value in experiment [1] (setting [5]) is given as 0%. In experiment [2] (setting [6]), the “Test B disease control rating” value was 0%.
Turning to `O=C(OCC(F)(F)F)c1cnn(Cc2ccc(OCC3(C(F)(F)F)OCCO3)cc2)c1` [compound 134], in experiment [1] (setting [5]), the “Test A disease control rating” value came to 89%. Further, the “Test B disease control rating” value in experiment [2] (setting [6]) worked out at 32%.
Take `CCOC(=O)c1ccn(Cc2cc(C)cc(O/C=C(\OCC)C(F)(F)F)c2)n1` [compound 405]: the “Test A disease control rating” value in experiment [1] (setting [3]) was found to be 0%. For the same compound, in experiment [2] (setting [3]), the “Test B disease control rating” value turned out to be 0%.
`CCOC(=O)C1CCN(Cc2ccc(O/C=C(\OCC)C(F)(F)F)cc2)CC1` [compound 268]: in experiment [1] (setting [4]), the “Test A disease control rating” value worked out at 99%. Moreover, the “Test B disease control rating” value in experiment [2] (setting [4]) was 0%.
Consider `CCOC(=O)c1ccnn1Cc1ccc(OCC(O)(O)C(F)(F)F)cc1` [compound 234], for which, in experiment [1] (setting [7]), the “Test A disease control rating” value was determined as 100%. The “Test B disease control rating” value in experiment [2] (setting [8]) is recorded as 92%.

(Values after patent US20240122180A1, “FUNGICIDAL HALOMETHYL KETONES AND HYDRATES AND THEIR MIXTURES” (FMC Corporation, priority 2020, published 2024).)
